The text below walks through data of PubChem BioAssay AID179 (DTP/NCI, 2004).

The test system of this experiment is CEM cells HIV-1 protection, formazan growth assay. The experiment can be described thus: NCI AIDS Antiviral Assay. The conditions noted are these: for IC50: measured here: growth of uninfected CEM cells. In outline: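 CEM (human) cells, HIV-1 infected vs uninfected, 5-point dosing, formazan growth read-out. Retest threshold 50% protection.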

SMILES strings stand for the structures. “And” between values parts separate entries of the source, which are not always exact repeats. Equal values may be shown once. The source made the active and inactive calls.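 Rule for the calls: active = compounds giving half or more protection of infected cells from virus-caused growth loss, again on retest; inactive = the rest.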 Where a SMILES comes first, the peptide text is derived from it. The star is where a group is joined. Boc = CC(C)(C)OC(=O)*

Take `c1ccc2c(c1)[nH]c1nc3cc(-c4ccc5nc6c(nc5c4)[nH]c4ccccc46)ccc3nc12`: the EC50 was greater than 200 µM and the IC50 turned out to be 110 µM.
The like results for `CC1=C(C(=O)O)N2C(=O)[C@@H](NC(=O)C(c3ccc(O)cc3)N3CSC(=S)N(C(C)C)C3)C2SC1` (stereo partly drawn) were, in that order, greater than 479 µM and 269 µM.
As for `CCN(C(=O)N[C@H](C(=O)N[C@@H](CSC)C(=O)N[C@@H](C)C(=O)OC)C(C)C)c1ccccc1`, the outcome was inactive.
Turning to `COC(=O)N(C[C@@H]1C=CCCC1)c1ccccc1I`, the EC50 is greater than 14.1 µM and the IC50 is greater than 14.1 µM.
Consider `O=C(CN1CCCCC1)Nc1ccc2c(c1)C1Oc3ccccc3CC1CO2` (stereo not drawn), for which the result was inactive.
On to `O=C(O)CCCCCCCCCCCBr`, for which the EC50 was 37.2 µM and the IC50 amounted to 162 µM.
The corresponding values for `CSc1c(C(=O)Nc2ccc(C)cc2)c(N)nn1-c1ccccc1` are greater than 200 µM and greater than 200 µM.
Regarding `O=C(O)c1ccc(CS(=O)(=O)c2ccc([N+](=O)[O-])cc2)c([N+](=O)[O-])c1`, the EC50 was greater than 676 µM and the IC50 is 324 µM.
The corresponding values for `CCC1Sc2cc(OC)cc(N)c2NC1=O` (stereo not drawn) are greater than 200 µM and greater than 200 µM.
The corresponding values for `O=c1[nH]c(=O)c2c3n(cc2[nH]1)CCCCC3` are greater than 200 µM and greater than 200 µM.
The corresponding values for `NS(=O)(=O)c1cc2c(cc1Cl)NCNS2(=O)=O` are greater than 832 µM and 437 µM.
Regarding `O=S(Cc1ccccc1)/C(=C/NC(=S)N=Nc1c(O)[nH]c2ccccc12)c1ccccc1` (stereo not drawn), the EC50 is 58.9 µM and the 50% inhibitory concentration (IC50) was found to be 178 µM.
The corresponding values for `O=C(CP(c1ccccc1)c1ccccc1)c1cccc(C(=O)CP(c2ccccc2)c2ccccc2)c1` are greater than 200 µM and 33.1 µM.
The like results for `Cc1[nH]n(C2=NCCN2)c(=O)c1Cc1ccccc1` were, in that order, greater than 200 µM and greater than 200 µM.
The corresponding values for `O=C1Nc2ccc([N+](=O)[O-])c3c(C(=O)O)ccc1c23` are greater than 200 µM and 141 µM.
With `COC1(OC)CC2OC1C1N=NN(C(=O)OC(C)(C)C)C21` (stereo not drawn), the EC50 is greater than 33.1 µM and the 50% inhibitory concentration (IC50) is greater than 33.1 µM.
Consider `CCN(CC)c1ccc2cc(-c3nc4ccccc4n3C)c(=O)oc2c1`, for which the EC50 is greater than 7.59 µM and the IC50 worked out at 0.437 µM.
With `COC(=O)C1=C(c2ccc(Cl)cc2)C(O)N=C(NN)N1` (stereo not drawn), the EC50 was greater than 832 µM and the half-maximal inhibitory concentration (IC50) was greater than 832 µM.
`CC(NC(=O)C(NC(=O)OC(C)(C)C)C(C)C)C(=O)NCC(=O)O` (stereo not drawn) (Boc-Val-Ala-Gly-OH; configuration not given here): the EC50 was greater than 200 µM and the IC50 is greater than 200 µM.
Regarding `COC(=O)C12CCCN1CCC2`, the EC50 was 26.3 µM and the IC50 was greater than 200 µM.
On to `O=C1OCCOC(=O)c2cccc(n2)C(=O)OCCOC(=O)c2cccc1n2`, for which the EC50 was 22.9 µM and the IC50 is 25.7 µM.
The corresponding values for `O=C1NC(=O)C2C3C=CC(C12)C1C2C(=O)NC(=O)C2C31` (stereo not drawn) are greater than 95.5 µM and greater than 95.5 µM.
For the molecule `CC1C(=O)CCC1C(Sc1ccccc1)(Sc1ccccc1)Sc1ccccc1` (stereo not drawn), the outcome was inactive.
Turning to `c1ccc(C[P+](c2ccccc2)(c2ccccc2)c2ccc3ccccc3c2-c2c([P+](Cc3ccccc3)(c3ccccc3)c3ccccc3)ccc3ccccc23)cc1`, the EC50 was greater than 257 µM; the IC50 was 0.389 µM and 2.51 µM.
Consider `CSc1scc2c1/C(=N/NC(N)=O)CCC2`, for which the EC50 is greater than 200 µM and the IC50 turned out to be 91.2 µM.
The molecule `O=c1cc2oc3cc(O)c(O)cc3c(-c3ccccc3O)c-2cc1O` showed an EC50 greater than 200 µM and an IC50 of 115 µM.
The like results for `Cc1cc(C)nc(NS(=O)(=O)c2ccc(Nc3c4ccc(Cl)cc4nc4c(C(=O)Nc5ccc(S(=O)(=O)N=C(N)N)cc5)cccc34)cc2)n1` were, in that order, greater than 49 µM and greater than 49 µM.
Turning to `Brc1ccc(C2=CSC3=NCCN23)cc1`, the EC50 was greater than 200 µM; the 50% inhibitory concentration (IC50) was 23.4 µM and 107 µM.
